Consider seven compounds from ChEMBL document CHEMBL4368888, “Design, synthesis and biological evaluation of tryptamine salicylic acid derivatives as potential antitumor agents” (Medchemcomm, 2019).

Activity calls are given as the source filed them. The rule behind the calls is not given here.

For orientation: IC50 means the midpoint of a concentration-inhibition curve. High values mean a need for much substance, low ones inhibition by little substance. For orientation: inhibition means the percentage by which the read-out fell short of the control.

Assay [1] relates to MGC-803. The assay is described as follows: Antiproliferative activity against human MGC803 cells after 48 hrs by MTT assay. In kind it is functional, cell-based. The conditions noted are these: MGC-803, 48 h. In general terms: Tetrazolium assays rely on reduction of a dye to a coloured formazan, in cell work by metabolically active cells.
In assay [2] the test system is MGC-803. The assay is described as follows: Effect on PFK expression levels in human MGC803 cells at 10 to 40 uM after 24 hrs by Western blot analysis. It is filed as functional, cell-based. In general terms: In western blotting, separated proteins are transferred to a membrane and probed.
The subject of assay [3] is MGC-803. The assay is described as follows: Cell cycle arrest in human MGC803 cells assessed as accumulation of cells at S phase at 40 uM after 24 hrs by propidium iodide staining-based flow cytometric analysis (reference value: 37.1%). It is filed as functional.
Assay [4] concerns MGC-803. The assay is described as follows: Cell cycle arrest in human MGC803 cells assessed as accumulation of cells at G2/M phase at 40 uM after 24 hrs by propidium iodide staining-based flow cytometric analysis (reference value: 9.86%). It is filed as functional. For orientation: In flow cytometry, cells or beads pass a laser one at a time.
Assay [5] has as its system MGC-803. The assay is described as follows: Induction of apoptosis in human MGC803 cells assessed as early apoptotic cells at 10 uM after 24 hrs by Annexin V-FITC/propidium iodide staining-based flow cytometric analysis (reference value: 1.04%). It is filed as functional.
The subject of assay [6] is MGC-803. The assay is described as follows: Induction of apoptosis in human MGC803 cells assessed as early apoptotic cells at 30 uM after 24 hrs by Annexin V-FITC/propidium iodide staining-based flow cytometric analysis (reference value: 1.04%). It is filed as functional.
Assay [7] has as its system MGC-803. The assay is described as follows: Induction of apoptosis in human MGC803 cells assessed as viable cells at 10 uM after 24 hrs by Annexin V-FITC/propidium iodide staining-based flow cytometric analysis (reference value: 94.2%). It is filed as functional. The conditions noted are these: MGC-803, 24 h, read-out: Activity.
For assay [8], the system named is MGC-803. The assay is described as follows: Cell cycle arrest in human MGC803 cells assessed as accumulation of cells at S phase at 20 uM after 24 hrs by propidium iodide staining-based flow cytometric analysis (reference value: 37.1%). It is filed as functional.
Assay [9] has as its system MGC-803. The assay is described as follows: Inhibition of colony formation in human MGC803 cells assessed as reduction in viable cells at 40 uM incubated for 9 days where culture medium was changed every 3 days by crystal violet staining-based assay. In kind it is functional.
Assay [10] has as its system MGC-803. The assay is described as follows: Down regulation of HK2 expression levels in human MGC803 cells at 10 to 40 uM after 24 hrs by Western blot analysis. In kind it is functional, cell-based.
A further assay deals with HeLa. The assay is described as follows: Antiproliferative activity against human HeLa cells after 48 hrs by MTT assay. It is filed as functional, cell-based.
Assay [11] concerns MGC-803. The assay is described as follows: Cell cycle arrest in human MGC803 cells assessed as accumulation of cells at G2/M phase at 20 uM after 24 hrs by propidium iodide staining-based flow cytometric analysis (reference value: 9.86%). In kind it is functional.
For assay [12], the system named is MGC-803. The assay is described as follows: Cell cycle arrest in human MGC803 cells assessed as accumulation of cells at G0/G1 phase at 40 uM after 24 hrs by propidium iodide staining-based flow cytometric analysis (reference value: 51.37%). In kind it is functional.
Another assay relates to MCF7. The assay is described as follows: Antiproliferative activity against human MCF7 cells after 48 hrs by MTT assay. In kind it is functional, cell-based. The conditions noted are these: MCF7, 48 h.
For assay [13], the system named is MGC-803. The assay is described as follows: Induction of apoptosis in human MGC803 cells assessed as early apoptotic cells at 20 uM after 24 hrs by Annexin V-FITC/propidium iodide staining-based flow cytometric analysis (reference value: 1.04%). It is filed as functional.
The subject of assay [14] is MGC-803. The assay is described as follows: Induction of apoptosis in human MGC803 cells assessed as viable cells at 20 uM after 24 hrs by Annexin V-FITC/propidium iodide staining-based flow cytometric analysis (reference value: 94.2%). It is filed as functional. Conditions: MGC-803, 24 h, read-out: Activity.
In a further assay the test system is A549. The assay is described as follows: Antiproliferative activity against human A549 cells after 48 hrs by MTT assay. It is filed as functional, cell-based. Conditions: A549, 48 h.
The test system of assay [15] is MGC-803. The assay is described as follows: Induction of apoptosis in human MGC803 cells assessed as necrotic cells at 30 uM after 24 hrs by Annexin V-FITC/propidium iodide staining-based flow cytometric analysis (reference value: 0.556%). It is filed as functional.
Assay [16] deals with MGC-803. The assay is described as follows: Cell cycle arrest in human MGC803 cells assessed as accumulation of cells at G2/M phase at 60 uM after 24 hrs by propidium iodide staining-based flow cytometric analysis (reference value: 9.86%). In kind it is functional.
Assay [17] relates to MGC-803. The assay is described as follows: Induction of apoptosis in human MGC803 cells assessed as late apoptotic cells at 30 uM after 24 hrs by Annexin V-FITC/propidium iodide staining-based flow cytometric analysis (reference value: 4.17%). It is filed as functional.
Assay [18] deals with MGC-803. The assay is described as follows: Induction of apoptosis in human MGC803 cells assessed as necrotic cells at 20 uM after 24 hrs by Annexin V-FITC/propidium iodide staining-based flow cytometric analysis (reference value: 0.556%). In kind it is functional.
Assay [19] concerns MGC-803. The assay is described as follows: Cell cycle arrest in human MGC803 cells assessed as accumulation of cells at G2/M phase after 24 hrs by propidium iodide staining-based flow cytometric analysis. It is filed as functional.
Assay [20] relates to MGC-803. The assay is described as follows: Antimigratory activity against human MGC803 cells after 48 hrs by scratch wound-healing assay. In kind it is functional, cell-based.
Assay [21] concerns MGC-803. The assay is described as follows: Effect on HIF-1 expression levels in human MGC803 cells at 10 to 40 uM in presence of 100 uM CoCl2 after 24 hrs by Western blot analysis. It is filed as functional, cell-based.
A further assay deals with HepG2. The assay is described as follows: Antiproliferative activity against human HepG2 cells after 48 hrs by MTT assay. It is filed as functional, cell-based. The conditions noted are these: HepG2, 48 h.
Assay [22] has as its system MGC-803. The assay is described as follows: Cell cycle arrest in human MGC803 cells assessed as accumulation of cells at G0/G1 phase at 60 uM after 24 hrs by propidium iodide staining-based flow cytometric analysis (reference value: 51.37%). It is filed as functional.
For assay [23], the system named is MGC-803. The assay is described as follows: Induction of apoptosis in human MGC803 cells assessed as late apoptotic cells at 10 uM after 24 hrs by Annexin V-FITC/propidium iodide staining-based flow cytometric analysis (reference value: 4.17%). It is filed as functional.
Assay [24] relates to MGC-803. The assay is described as follows: Induction of apoptosis in human MGC803 cells after 24 hrs by Annexin V-FITC/propidium iodide staining-based flow cytometric analysis. In kind it is functional, cell-based.
Assay [25] deals with MGC-803. The assay is described as follows: Cell cycle arrest in human MGC803 cells assessed as accumulation of cells at S phase at 60 uM after 24 hrs by propidium iodide staining-based flow cytometric analysis (reference value: 37.1%). In kind it is functional.
For assay [26], the system named is MGC-803. The assay is described as follows: Induction of apoptosis in human MGC803 cells assessed as late apoptotic cells at 20 uM after 24 hrs by Annexin V-FITC/propidium iodide staining-based flow cytometric analysis (reference value: 4.17%). In kind it is functional.
In assay [27] the test system is MGC-803. The assay is described as follows: Cell cycle arrest in human MGC803 cells assessed as accumulation of cells at G0/G1 phase at 20 uM after 24 hrs by propidium iodide staining-based flow cytometric analysis (reference value: 51.37%). In kind it is functional.
Assay [28] relates to MGC-803. The assay is described as follows: Induction of apoptosis in human MGC803 cells assessed as viable cells at 30 uM after 24 hrs by Annexin V-FITC/propidium iodide staining-based flow cytometric analysis (reference value: 94.2%). It is filed as functional. Conditions: MGC-803, 24 h, read-out: Activity.
Assay [29] relates to MGC-803. The assay is described as follows: Induction of apoptosis in human MGC803 cells assessed as necrotic cells at 10 uM after 24 hrs by Annexin V-FITC/propidium iodide staining-based flow cytometric analysis (reference value: 0.556%). It is filed as functional.
For assay [30], the system named is MGC-803. The assay is described as follows: Inhibition of colony formation in human MGC803 cells assessed as reduction in viable cells incubated for 9 days where culture medium was changed every 3 days by crystal violet staining-based assay. It is filed as functional, cell-based.

For `Cc1cccc(C(=O)NCCc2c[nH]c3ccc(Br)cc23)c1O`, the IC50 in the assay with MGC-803 [1] amounted to 29 µM; in the assay on HeLa, 52 µM; in the assay with MCF7, 63 µM; in the assay on A549, 36 µM; in the assay with HepG2, 45 µM. Besides, the result in the assay on MGC-803 [2] and in the assay with MGC-803 [21] was inactive. Further, the Activity with MGC-803 [3] amounted to 15.58%; in the assay on MGC-803 [4], 34.65%; in the assay on MGC-803 [5], 1.66%; in the assay with MGC-803 [6] it was 42.7%; in the assay on MGC-803 [8], 21.11%; with MGC-803 [11] it was 27.01%. In addition, the Activity in the assay on MGC-803 [12] stood at 49.99%; in the assay with MGC-803 [13], 5.97%; in the assay with MGC-803 [15], 0.587%; with MGC-803 [16], 40.78%; in the assay on MGC-803 [17], 15.4%; in the assay on MGC-803 [18], 1.37%. In addition, the Activity result was “Dose-dependent effect” with MGC-803 [19]; “Dose-dependent effect” in the assay on MGC-803 [20]; 52.98% with MGC-803 [22]; 6.56% in the assay with MGC-803 [23]; “Dose-dependent effect” in the assay with MGC-803 [24]; 7.56% with MGC-803 [25]. In addition, the results for the Activity in the assay with MGC-803 [26], in the assay with MGC-803 [27] and with MGC-803 [29] were 9.67%, 43% and 0.25%, respectively. Moreover, in the assay with MGC-803 [7], the viability at 10 µM turned out to be 91.5%. For the same compound, the inhibition at 40 µM in the assay on MGC-803 [9] is 100%. For the same compound, the result in the assay on MGC-803 [10] was Active. Further, the viability at 20 µM in the assay with MGC-803 [14] turned out to be 83%. The viability at 30 µM in the assay on MGC-803 [28] was 41.3%. The inhibition entry in the assay on MGC-803 [30] is “Dose-dependent effect”.
`O=C(NCCc1c[nH]c2ccc(F)cc12)c1cc(Br)ccc1O`: the IC50 was 80 µM with MGC-803 [1]; 76 µM in the assay on HeLa; greater than 100 µM in the assay with MCF7; 77 µM in the assay on A549; greater than 100 µM in the assay with HepG2.
Turning to `O=C(NCCc1c[nH]c2ccc(Cl)cc12)c1ccc(Cl)cc1O`, the IC50 is 34 µM in the assay on MGC-803 [1]; 64 µM in the assay with HeLa; 69 µM in the assay with MCF7; 46 µM in the assay with A549; 90 µM in the assay with HepG2.
For `O=C(NCCc1c[nH]c2ccc(F)cc12)c1cc(Cl)ccc1O`, in that order: 53 µM, greater than 100 µM, greater than 100 µM, 53 µM and greater than 100 µM.
For the compound `O=C(NCCc1c[nH]c2ccccc12)c1cc(Br)ccc1O`, the IC50 is 78 µM in the assay on MGC-803 [1]; greater than 100 µM with HeLa; greater than 100 µM with MCF7; greater than 100 µM in the assay with A549; greater than 100 µM in the assay on HepG2.
In the case of `COc1ccc2[nH]cc(CCNC(=O)c3ccc(C)cc3O)c2c1`, the IC50 with MGC-803 [1] is 59 µM; in the assay on HeLa, 80 µM; in the assay on MCF7 it was greater than 100 µM; with A549, greater than 100 µM; in the assay with HepG2, 80 µM.
For the compound `Cc1ccc(C(=O)NCCc2c[nH]c3ccc(F)cc23)c(O)c1`, the 50% inhibitory concentration (IC50) in the assay with MGC-803 [1] is 60 µM; in the assay with HeLa, greater than 100 µM; in the assay on MCF7 it was greater than 100 µM; in the assay with A549 it was greater than 100 µM; in the assay on HepG2, greater than 100 µM.
